Experimental data as given in paper PMC8116058, “De novo macrocyclic peptides dissect energy coupling of a heterodimeric ABC transporter by multimode allosteric inhibition” (eLife, 2021).
Positions of bridges follow the written chain, without caps; N, C: chain ends. Non-standard residues stand in square brackets, D forms with d. Residues, ends and D or L forms follow the SMILES beside them. *: point of attachment. 5FAM = O=C1OC2(c3ccc(O)cc3Oc3cc(O)ccc32)c2ccc(C(=O)*)cc21; βAla = NCCC(=O)O

Legend:
[1] = tested on: wild-type TmrAB in liposomes; test: Single-liposome flow cytometry transport assay; type: biochemical, Thermus thermophilus; settings: for Peptides/liposome, time course / Mean fluorescence intensity * 10^3, time course / Transported C4^ATTO655, Peptides/liposome: C4^ATTO655 1 µM; for Peptides/liposome, time course: corrected by ADP background; for Peptide transport in two successive IF-to-OF cycles: 5 min 45°C / 60 min 4°C, repeated; for Transported C4^ATTO655, Peptides/liposome: TmrAB 0.4 µM, ATP 3 mM, ATP without CP 84.57, ADP 3.52; for Peptides/liposome, two consecutive transport cycles: ADP background corrected
Description: To investigate whether an IF-to-OF transition and conformational arrest by CP13^F or CP14^F can still result in a productive substrate translocation, we followed peptide transport by wild-type TmrAB by single liposome-based flow cytometry (Figure 6A). […] CPs block multiple-turnover transport monitored by quantitative flow cytometry. (A) Single turnover by IF-to-OF switch monitored by single-liposome flow cytometry. […] Transport reactions were stopped by the addition of EDTA (10 mM). 100,000 proteoliposomes were analyzed by flow cytometry monitoring fluorescein and ATTO655 intensities. […] (C, D) Slowdown of multiple-turnover substrate transport. […] Transported peptides per liposomes were evaluated and corrected by ADP background levels as described in (B). Transport kinetics were fitted monoexponentially. […] (E) Two consecutive transport cycles. […] Transported peptides per liposome were evaluated as described in (B) and corrected by background levels in the presence of ADP. […] Figure 6-source data 1. Source data for Figure 6. Figure 6-figure supplement 1. Linear regression of quantitative flow cytometry analysis. (A) Gating strategy. Liposomes were selected according to side and forward scatter areas. Single liposomes were gated based on the height of forward scatter correlated to the area of forward scatter. […] Detergent was removed, and liposomes were extensively washed by centrifugation. […] Equal concentrations of fluorescein served as loading control (right). (C) Linear regression. […] Mean values ± SD (n = 3) are shown. Figure 6-figure supplement 1-source data 1. Source Data for Figure 6-figure supplement 1. [drawing 5] […] To confirm the conformational arrest of wild-type TmrAB by CP13^F and the slow turnover in the presence of CP14^F, we examined two successive cycles of conformational transitions by flow cytometry. […] Both steps were repeated to yield two consecutive cycles of conformational transitions. […] Taken together, the macrocyclic peptides CP13 and CP14 stabilize a pre-hydrolysis state, thus allowing a single-turnover translocation along the IF-to-OF switch. […] Transport reactions were stopped by adding EDTA (10 mM). […] For regression analysis, liposomes were loaded with increasing amounts of peptides to convert the fluorescence intensities into the number of peptides per liposome ([Stefan et al., 2020]). […] Equal amounts of carboxyfluorescein (Sigma-Aldrich) served as loading control. Detergent was removed by adding SM-2 Bio-beads (Bio-Rad) as detailed above. Liposomes were harvested for 30 min at 270,000 g and washed three times by centrifugation. Generally, 20,000-100,000 proteoliposomes were selected according to sideward and forward scatter areas. Single events were selected based on the height of forward scatter plotted against the area of forward scatter. […] Data represent mean ± SD from three experiments.

[2] = tested on: TmrAB in liposomes; test: Filter-based transport assay, inhibition of C4F translocation; type: biochemical, Thermus thermophilus; settings: C4F 3 µM, CP^F 1 µM, 15 min 45°C; for Transported C4F peptide: TmrAB 0.4 µM
Text: In order to investigate the functional impact of CPs, we examined the effect of the CPs on ATP hydrolysis and substrate transport of TmrAB (Figure 3A). We reconstituted TmrAB in liposomes and first assayed the ATPase activity. […] We next set out to investigate peptide transport by TmrAB using a filter-based transport assay. To investigate whether CPs are recognized as substrates by TmrAB, we added fluorescein-labeled CP^Fs and examined ATP-dependent translocation. In contrast to the linear substrate peptide C4F, none of the CP^Fs were transported by TmrAB (Figure 3C). Next, we examined ATP-dependent transport of C4F peptides in the presence and absence of the different CPs.
Figure 3. CP^Fs are potent inhibitors of ATP turnover and substrate transport. (A) Experimental scheme of ATP hydrolysis and peptide transport by TmrAB. (B) CP^Fs inhibit ATP hydrolysis. TmrAB in liposomes (100 nM) was incubated with ATP (2 mM, traced with [γ^32P]-ATP), and MgCl2 (5 mM) in the presence and absence of CP^Fs (1 µM) for 10 min at 45°C. Autohydrolysis was determined in the absence of TmrAB, and background turnover was conducted in the presence of EDTA (10 mM). Release of [γ^32P] was quantified by thin layer chromatography. (C) CP^Fs are not transported by TmrAB. TmrAB (0.4 µM) reconstituted in liposomes was incubated with C4F peptide (3 µM) or CP^Fs (1 µM) in the presence of ATP/ADP (3 mM) and MgCl2 (5 mM) for 5 min at 45°C. Since CP^Fs were dissolved in maximal 0.5% (v/v) of DMSO, C4F plus 0.5% DMSO served as control. Proteoliposomes were washed on filter plates, and transported peptides were quantified at λex/em = 485/520 nm. (D) Inhibition of substrate translocation. TmrAB in liposomes (0.4 µM) were incubated with C4F peptide (3 µM), ATP/ADP (3 mM), and MgCl2 (5 mM) in the presence and absence of CP^Fs (1 µM) for 15 min at 45°C. Transported peptides were quantified as described in (C). In (B–C), mean values ± SD (n = 3) are shown. Figure 3—source data 1. Source data for Figure 3.
TmrAB in liposomes (0.4 µM) were incubated with ATP/ADP (3 mM), MgCl2 (5 mM), C4F peptide (3 µM), and CP^Fs (1 µM) for 15 min at 45°C. […] Proteoliposomes were solubilized by adding SDS (1% [v/v]) in transport buffer for 10 min at 20°C. Transported peptides were quantified at λex/em = 485/520 nm using a microplate reader (CLARIOstar, BMG LABTECH).

[3] = time 5 min (after first 5 min at 45°C)
[4] = time 65 min (after 60 min at 4°C)
[5] = time 70 min (after second 5 min at 45°C)
[6] = time 130 min (after second 60 min at 4°C)
[7] = ADP 3 mM (background), without CP 0.01

SMILES	Peptide transport in two successive IF-to-OF cycles [1]	Transported C4^ATTO655, Peptides/liposome ([1]; CP^F 1 µM, 5 min 45°C) [Peptides/liposome]	Peptides/liposome, two consecutive transport cycles ([1]; time 0 min) [Peptides/liposome]	Peptides/liposome, two consecutive transport cycles [1, 3] [Peptides/liposome]	Peptides/liposome, two consecutive transport cycles [1, 4] [Peptides/liposome]	Peptides/liposome, two consecutive transport cycles [1, 5] [Peptides/liposome]	Peptides/liposome, two consecutive transport cycles [1, 6] [Peptides/liposome]	Transported C4F peptide [2, 7] [µmol·g/min]	Transported C4F peptide ([2]; ATP 3 mM, without CP 1.66) [µmol·g/min]	Effect on ATP-dependent C4F peptide translocation [2]	also measured
CC[C@H](C)[C@@H]1NC(=O)[C@H](Cc2c[nH]c3ccccc23)NC(=O)[C@H](CC(N)=O)NC(=O)[C@H](C)NC(=O)[C@H](CO)NC(=O)[C@@H]2CCCN2C(=O)[C@H](CC(=O)O)NC(=O)[C@@H](Cc2ccc(O)cc2)NC(=O)CSC[C@@H](C(=O)NCC(=O)N[C@@H](CO)C(=O)NCCC(=O)NCCC(=O)N[C@@H](CCCNC(=N)N)C(=O)N[C@@H](CCCCNC(=O)c2ccc3c(c2)C(=O)OC32c3ccc(O)cc3Oc3cc(O)ccc32)C(N)=O)NC(=O)[C@H]([C@@H](C)O)NC(=O)[C@H](CC(C)C)NC(=O)[C@H](CC(C)C)NC(=O)[C@H](C(C)C)NC(=O)[C@H](CC(C)C)NC1=O [CP13] ({CH2CO}-[dY]DPSANWILVLLTCGS[βAla][βAla]RK(5FAM)-NH2; thioether N-14; C-terminus assumed)	peptide transport was exclusively observed along the first IF-to-OF switch	13.69	0.00	9.32	10.24	10.66	11.66	0.25	0.41	only caused a partial inhibition	Peptides/liposome, time course ([1]; 1 min at 45°C, CP^F 1 µM): -0.42 Peptides/liposome; Mean fluorescence intensity * 10^3, time course ([1]; 1 min at 45°C, CP^F 1 µM, without CP 2.29): -0.03 * 10^3; Peptides/liposome, time course ([1]; 3 min at 45°C, CP^F 1 µM): 2.53 Peptides/liposome; Mean fluorescence intensity * 10^3, time course ([1]; 3 min at 45°C, CP^F 1 µM, without CP 10.49): 0.17 * 10^3; Peptides/liposome, time course ([1]; 5 min at 45°C, CP^F 1 µM): 3.33 Peptides/liposome; Mean fluorescence intensity * 10^3, time course ([1]; 5 min at 45°C, CP^F 1 µM, without CP 18.11): 0.23 * 10^3; Peptides/liposome, time course ([1]; 10 min at 45°C, CP^F 1 µM): 5.08 Peptides/liposome; Mean fluorescence intensity * 10^3, time course ([1]; 10 min at 45°C, CP^F 1 µM, without CP 30.27): 0.35 * 10^3; Peptides/liposome, time course ([1]; 20 min at 45°C, CP^F 1 µM): 4.95 Peptides/liposome; Mean fluorescence intensity * 10^3, time course ([1]; 20 min at 45°C, CP^F 1 µM, without CP 40.72): 0.34 * 10^3; Peptides/liposome, time course ([1]; 40 min at 45°C, CP^F 1 µM): 5.22 Peptides/liposome; Mean fluorescence intensity * 10^3, time course ([1]; 40 min at 45°C, CP^F 1 µM, without CP 51.44): 0.36 * 10^3; C4^ATTO655 peptides per liposome transported along a single IF-to-OF switch ([1]; CP^F 1 µM, 5 min 45°C, ~30 transport-competent TmrAB per liposome): approx. 10 peptides per liposome; Peptide transport rate compared to control without CP^Fs ([1]; period of 40 min at 45°C): drastically reduced the peptide transport rate; Turnover of wild-type TmrAB over long-term incubation ([1]; period of 40 min at 45°C): a single turnover driving peptide transport was observed; Period of conformational arrest of wild-type TmrAB ([1]; two consecutive cycles): 2 h
CC[C@H](C)[C@@H]1NC(=O)[C@H]([C@@H](C)O)NC(=O)[C@H](CC(C)C)NC(=O)[C@H](Cc2c[nH]c3ccccc23)NC(=O)[C@H](Cc2ccccc2)NC(=O)[C@H](CC(N)=O)NC(=O)[C@H](CCC(=O)O)NC(=O)[C@H](CC(C)C)NC(=O)[C@H](CS)NC(=O)[C@H](Cc2c[nH]cn2)NC(=O)[C@H](CO)NC(=O)[C@@H](Cc2ccc(O)cc2)NC(=O)CSC[C@@H](C(=O)NCC(=O)N[C@@H](CO)C(=O)NCCC(=O)NCCC(=O)N[C@@H](CCCNC(=N)N)C(=O)N[C@@H](CCCCNC(=O)c2ccc3c(c2)C(=O)OC32c3ccc(O)cc3Oc3cc(O)ccc32)C(N)=O)NC(=O)[C@H](CC(C)C)NC1=O [CP6] ({CH2CO}-[dY]SHCLENFWLTILCGS[βAla][βAla]RK(5FAM)-NH2; thioether N-14)	peptide translocation was completely abrogated	4.74	0.00	0.17	0.01	1.93	1.54	0.37	0.29	completely blocked peptide translocation	Effect on C4^ATTO655 peptide translocation ([1]; CP^F 1 µM, 5 min 45°C): completely prevented C4^ATTO655 peptide translocation
